Experimental data as given in patent US20240247048A1 (EMORY UNIVERSITY, priority 2021, published 2024).

Test system: tumor infiltrating T cells in KPC-Luc tumors
Assay: analysis of tumor infiltrating T cells in subcutaneous KPC-Luc tumors (flow cytometry, Nanostring, TCR sequencing, tetramer)
Assay type: in vivo, mouse
Description: FIGS. 19A, 19B, 19C, 19D, 19E, 19F, 19G, 19H and 19I show increased T cell activation and reduced frequency of Tregs in KPC.Luc tumors treated with a combination of VIP-R antagonist and anti-PD-1. Subcutaneous KPC.Luc tumors in C57BL/6 mice treated with ANT008 and/or anti-PD-1 (n=5 per treatment group), were analyzed via flow cytometry 10 days after treatment for proportion of (FIG. 19A) CD4+ and (FIG. 19B) CD8+ T cells expressing Ki67, IFN gamma, IL-4, PD-1 and Tim-3. (FIG. 19C) Representative flow plots showing the gating strategy used to quantify CD25+FoxP3+ Tregs. (FIG. 19D) Percentage of Tregs in tumors of the different treatment groups (n=5 per treatment group). Volcano plot showing differential expression of genes in T cells from (FIG. 19E) ANT008+ isotype IgG (IgG) vs scrambled peptide (Scram)+ isotype IgG, (FIG. 19F) scrambled peptide+anti-PD-1 vs scrambled peptide+isotype IgG and (FIG. 19G) ANT008+anti-PD-1 vs scrambled peptide+isotype IgG (n=3 mice per treatment group). Horizontal black line represents false discovery rate (FDR)<0.1. […] (FIG. 19H) Heat map showing gene expression changes in genes associated with TCR activation and co-stimulation. (FIG. 19I) TCR activation and co-stimulation pathway score between the T cells in tumors of mice from the different treatment groups. Statistical differences in FIGS. 19A, 19B, 19D and 19I were calculated via ANOVA followed by Dunnett's post-test. Error bars show mean±SEM *p<0.05, **p<0.001, ***p<0.0001.
(FIG. 20A) Box and whiskers plot showing Shannon's Entropy in T cells of KPC.Luc tumors in each treatment group. (FIG. 20B) List showing TCR-0 amino acid sequences shared between samples of each treatment group and (FIG. 20C) the frequencies of the shared clones in each treatment group. Sequences are color coded to represent number of mice per group (n=4) that share the specific TCR-β clone. CD8+ in subcutaneous KPC.Luc tumors were stained with MuLV p15E-H2Kb tetramer after 10 days of treatment with ANT308 and/or anti-PD-1 (n=3 per treatment group) using the (FIG. 20D) gating strategy and (FIG. 20E) quantified. […] Statistical differences in a and e were calculated via ANOVA followed by Dunnett's post-test and in FIG. 20F and FIG. 20G were calculated using Log-rank test. […]
Increased T cell activation in tumors of mice treated with a combination of VIP-R antagonist and anti-PD-1. To investigate whether inhibiting VIP-R signaling promotes T cell activation in vivo, the study analyzed tumor infiltrating T cells in subcutaneous KPC-Luc tumors for differences in activation markers. […]

KPRRPYTDNYTRLRKQMAVKKYLNLILN [ANT008]
genes upregulated in TIL (Nanostring) (>4-fold change, FDR<0.1, FIG. 19e-19g): no genes significantly upregulated | frequency of Tregs within the PDAC tumors (FIG. 19c, 19d): significantly decreased | levels of PD-1+ Tim-3- T cells in CD4+ and CD8+ subsets (monotherapy, 10 days after treatment, FIG. 19a, 19b): increased | number of clones shared by at least 2 samples among top 50 highest frequency TCR clones (n=4 per group, FIG. 20b): 6
